# According to patent US20250275977A1, “DOSAGE REGIMENS FOR TREATMENT WITH DEUTERATED JAK INHIBITORS” (SUN PHARMACEUTICAL INDUSTRIES, INC., priority 2022, published 2025):
# How the values were obtained:
# Assay type in all cases: in vivo, human
# [1] = system: adult patients with moderate-to-severe alopecia areata; assay: Phase 2a double-blind, randomized, placebo-controlled trial, efficacy by severity of alopecia tool (SALT); settings: for patients who achieved a ≥50% reduction in their overall SALT score: week 24, relative to baseline; for difference from placebo on all SALT measures / patients who achieved a ≥75% reduction in their overall SALT score / patients who achieved a ≥90% reduction in their overall SALT score: week 24; for significant changes in SALT score compared to placebo observed starting at: p<0.05
# Description: The efficacy of treatment of hair loss disorders such as alopecia areata can be measured in a variety of ways, some of which are known in the art. For example, the “severity of alopecia tool”, otherwise known as SALT, is a validated assessment scale—developed by the National Alopecia Areata Foundation working committee—to evaluate the degree of hair loss. See, e.g., Olsen E A, Hordinsky M K, Price V H, et al. Alopecia areata investigational assessment guidelines—Part II. J Am Acad Dermatol 2004: 51: 440-447 (incorporated herein by reference). The SALT score is calculated for a patient by measuring the percentage of hair loss in each of the 4 areas of the scalp and adding the total to achieve a composite score. Hair regrowth is reflected by a decrease in the SALT score. For example, no hair on the scalp would have a SALT score of 100 while complete hair regrowth would be a SALT score of 0. In certain embodiments, methods of treatment as described herein can provide a SALT score improvement of at least 10 points after treatment (for example, from a SALT score of 100 prior to treatment to a SALT score of 90 after treatment). In further embodiments, methods of treatment as described herein can provide a SALT score improvement of at least 20 points, 30 points, 40 points, 50 points, 60 points, 70 points, 80 points, 90 points, or 100 points. In certain embodiments, methods of treatment as described herein can provide after treatment at least a 20% improvement from baseline in the patient's SALT score, or at least a 30% improvement from baseline in the patient's SALT score, or at least a 40% improvement from baseline in the patient's SALT score, or at least a 50% improvement from baseline in the patient's SALT score, or at least a 60% improvement from baseline in the patient's SALT score, or at least a 70% improvement from baseline in the patient's SALT score, or at least a 75% improvement from baseline in the patient's SALT score or at least a 80% improvement from baseline in the patient's SALT score, or at least a 90% improvement from baseline in the patient's SALT score.
# (§1) A Phase 2a trial was conducted to evaluate the safety and efficacy of Compound (I) (CTP-543) in subjects with alopecia, with the primary efficacy analysis at week 24. The Phase 2a trial was a double-blind, randomized, placebo-controlled trial to evaluate the safety and efficacy of Compound (I) in adult patients with moderate-to-severe alopecia areata. Patients were sequentially randomized to receive one of three doses of Compound I as the phosphate salt (e.g., 10.5 mg of Compound (I) phosphate salt is equivalent 8 mg of Compound (I) free base). The doses of Compound (I) were 4, 8 (i.e., about 10.5 mg of Compound (I) phosphate salt), and 12 mg twice daily, and there was also a patient group receiving placebo. The primary outcome measure utilized the severity of alopecia tool (SALT) after 24 weeks of dosing.
# Interim top line analysis for the 4 mg, 8 mg, and 12 mg cohorts is discussed below. The primary endpoint for the study was a 50% relative reduction in SALT between Week 24 and baseline.
# [2] = system: adult patients with moderate-to-severe alopecia areata; assay: Phase 2a trial, safety: treatment emergent adverse events by patient
# Description: as §1
# [3] = system: subjects with alopecia areata; assay: Open-label extension study (OLE), SALT score after dose reduction
# Description: In an ongoing open-label extension study, subjects who were previously enrolled in a qualifying clinical study (including the study described in Example 1) and received either a total daily dose of 16 mg of Compound (I) (CTP-543, phosphate salt), a total daily dose of 24 mg of CTP-543, or placebo, and completed through the 24-week treatment period, were eligible to enroll in an open-label extension study (OLE) and continue to receive treatment with CTP-543 phosphate. A total of 152 subjects were enrolled in the OLE. In the OLE, subjects received daily treatment with CTP-543 at a dose of 8 mg BID or 12 mg BID (see FIG. 8). Dose adjustments were allowed at the investigator's discretion. One subject enrolled in the OLE, who received a daily dose of 24 mg QD of CTP-543 for approximately 9 months (i.e., the 24-week study period and the initial 3 months of the OLE), experienced hair growth at that dose (SALT score of zero, i.e., full regrowth of hair prior to dose reduction). The subject then had their dose reduced to a daily dose of 8 mg BID of CTP-543 phosphate. After approximately 7 months in the OLE receiving the lower daily dose of 8 mg BID of CTP-543, the subject continued to substantially maintain hair regrowth, with a SALT score of 7.92.
compound,measurement,setting,value
"[2H]C1([2H])C([C@@H](CC#N)n2cc(-c3ncnc4[nH]ccc34)cn2)C([2H])([2H])C([2H])([2H])C1([2H])[2H] [CTP-543, (R)-3-(4-(7H-pyrrolo[2,3-d]pyrimidin-4-yl)-1H-pyrazol-1-yl)-3-(cyclopentyl-2,2,3,3,4,4,5,5-d8)propanenitrile]",separation from placebo on all measures,[1]; 4 mg BID,failed to separate from placebo on all measures
same,patients who achieved a ≥50% reduction in their overall SALT score,[1]; 4 mg BID,21%
same,difference from placebo on all SALT measures,[1]; 8 mg BID,significantly different from placebo
same,patients who achieved a ≥75% reduction in their overall SALT score,[1]; 8 mg BID,29%
same,patients who achieved a ≥90% reduction in their overall SALT score,[1]; 8 mg BID,16%
same,patients who achieved a ≥50% reduction in their overall SALT score,[1]; 8 mg BID,47%
same,significant changes in SALT score compared to placebo observed starting at,[1]; 8 mg cohort,12 weeks
same,12 mg BID dose compared to the 8 mg BID dose,[1]; 12 mg BID vs 8 mg BID,numerically superior and generally produced faster onset and greater effect
same,difference from placebo on all SALT measures,[1]; 12 mg BID,significantly different from placebo
same,patients who achieved a ≥75% reduction in their overall SALT score,[1]; 12 mg BID,42%
same,patients who achieved a ≥90% reduction in their overall SALT score,[1]; 12 mg BID,36%
same,patients who achieved a ≥50% reduction in their overall SALT score,[1]; 12 mg BID,58%
same,significant changes in SALT score compared to placebo observed starting at,[1]; 12 mg cohort,12 weeks
same,"Acne, patients with event",[2]; 4 mg twice daily,4
same,"Acne, percent of patients",[2]; 4 mg twice daily,(13.8%)
same,"Blood creatine phosphokinase increased, patients with event",[2]; 4 mg twice daily,3
same,"Blood creatine phosphokinase increased, percent of patients",[2]; 4 mg twice daily,(10.3%)
same,"Cough, patients with event",[2]; 4 mg twice daily,4
same,"Cough, percent of patients",[2]; 4 mg twice daily,(13.8%)
same,"Diarrhoea, patients with event",[2]; 4 mg twice daily,3
same,"Diarrhoea, percent of patients",[2]; 4 mg twice daily,(10.3%)
same,"Folliculitis, patients with event",[2]; 4 mg twice daily,3
same,"Folliculitis, percent of patients",[2]; 4 mg twice daily,(10.3%)
same,"Headache, patients with event",[2]; 4 mg twice daily,5
same,"Headache, percent of patients",[2]; 4 mg twice daily,(17.2%)
same,"LDL increase, patients with event",[2]; 4 mg twice daily,0
same,"Nasopharyngitis, patients with event",[2]; 4 mg twice daily,3
same,"Nasopharyngitis, percent of patients",[2]; 4 mg twice daily,(10.3%)
same,"Nausea, patients with event",[2]; 4 mg twice daily,4
same,"Nausea, percent of patients",[2]; 4 mg twice daily,(13.8%)
same,"Oroharyngeal pain, patients with event",[2]; 4 mg twice daily,3
same,"Oroharyngeal pain, percent of patients",[2]; 4 mg twice daily,(10.3%)
same,"Upper respiratory tract infection, patients with event",[2]; 4 mg twice daily,2
same,"Upper respiratory tract infection, percent of patients",[2]; 4 mg twice daily,(6.9%)
same,"Acne, patients with event",[2]; 8 mg twice daily,4
same,"Acne, percent of patients",[2]; 8 mg twice daily,(10.5%)
same,"Blood creatine phosphokinase increased, patients with event",[2]; 8 mg twice daily,2
same,"Blood creatine phosphokinase increased, percent of patients",[2]; 8 mg twice daily,(5.3%)
same,"Cough, patients with event",[2]; 8 mg twice daily,1
same,"Cough, percent of patients",[2]; 8 mg twice daily,(2.6%)
same,"Diarrhoea, patients with event",[2]; 8 mg twice daily,1
same,"Diarrhoea, percent of patients",[2]; 8 mg twice daily,(2.6%)
same,"Folliculitis, patients with event",[2]; 8 mg twice daily,2
same,"Folliculitis, percent of patients",[2]; 8 mg twice daily,(5.3%)
same,"Headache, patients with event",[2]; 8 mg twice daily,10
same,"Headache, percent of patients",[2]; 8 mg twice daily,(26.3%)
same,"LDL increase, patients with event",[2]; 8 mg twice daily,4
same,"LDL increase, percent of patients",[2]; 8 mg twice daily,(10.5%)
same,"Nasopharyngitis, patients with event",[2]; 8 mg twice daily,3
same,"Nasopharyngitis, percent of patients",[2]; 8 mg twice daily,(7.9%)
same,"Nausea, patients with event",[2]; 8 mg twice daily,4
same,"Nausea, percent of patients",[2]; 8 mg twice daily,(10.5%)
same,"Oroharyngeal pain, patients with event",[2]; 8 mg twice daily,2
same,"Oroharyngeal pain, percent of patients",[2]; 8 mg twice daily,(5.3%)
same,"Upper respiratory tract infection, patients with event",[2]; 8 mg twice daily,2
same,"Upper respiratory tract infection, percent of patients",[2]; 8 mg twice daily,(5.3%)
same,"Acne, patients with event",[2]; 12 mg twice daily,6
same,"Acne, percent of patients",[2]; 12 mg twice daily,(16.7%)
same,"Blood creatine phosphokinase increased, patients with event",[2]; 12 mg twice daily,1
same,"Blood creatine phosphokinase increased, percent of patients",[2]; 12 mg twice daily,(2.8%)
same,"Cough, patients with event",[2]; 12 mg twice daily,2
same,"Cough, percent of patients",[2]; 12 mg twice daily,(5.6%)
same,"Diarrhoea, patients with event",[2]; 12 mg twice daily,0
same,"Folliculitis, patients with event",[2]; 12 mg twice daily,1
same,"Folliculitis, percent of patients",[2]; 12 mg twice daily,(2.8%)
same,"Headache, patients with event",[2]; 12 mg twice daily,7
same,"Headache, percent of patients",[2]; 12 mg twice daily,(19.4%)
same,"LDL increase, patients with event",[2]; 12 mg twice daily,0
same,"Nasopharyngitis, patients with event",[2]; 12 mg twice daily,9
same,"Nasopharyngitis, percent of patients",[2]; 12 mg twice daily,(25.0%)
same,"Nausea, patients with event",[2]; 12 mg twice daily,1
same,"Nausea, percent of patients",[2]; 12 mg twice daily,(2.8%)
same,"Oroharyngeal pain, patients with event",[2]; 12 mg twice daily,1
same,"Oroharyngeal pain, percent of patients",[2]; 12 mg twice daily,(2.8%)
same,"Upper respiratory tract infection, patients with event",[2]; 12 mg twice daily,7
same,"Upper respiratory tract infection, percent of patients",[2]; 12 mg twice daily,(19.4%)
same,serious adverse events,"[2]; 4, 8 and 12 mg BID, 24 weeks",no serious adverse events
same,tolerability of treatment,"[2]; 4, 8 and 12 mg BID, 24 weeks",generally well-tolerated
same,Grade 3/4 hematology events,"[2]; preliminary analysis, total, distributed equally across the placebo, 4 mg and 8 mg groups",3
same,SALT score,"[3]; one subject, 24 mg QD for approximately 9 months, prior to dose reduction",zero
same,SALT score,"[3]; same subject, after approximately 7 months at the reduced dose of 8 mg BID",7.92
